Reference: USRE48461E1, “Modulation of androgen receptor expression” (Ionis Pharmaceuticals, Inc., priority 2012, dated 2021)
Oligonucleotides are written 5' to 3', each unit as a sugar letter and its base; * is a phosphorothioate linkage, no mark a phosphodiester; rarer units and linkages stand in square brackets, end groups in braces. Plain capitals give the bases only. e = 2'-O-(2-methoxyethyl) (MOE); k = constrained ethyl (cEt); [5mC] = 5-methylcytosine; d = 2'-deoxy (DNA)

How the values were obtained:
AR mRNA [1] = test: Dose-dependent antisense inhibition of human AR in HuVEC cells (electroporation, qRT-PCR RTS3559, IC50); format: cell-based; settings: HuVEC
Procedure, shortened: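 HuVEC cells dosed with antisense oligonucleotides by electroporation and treated approximately 16 hours. AR mRNA quantified by real-time qPCR with primer probe set RTS3559 and normalised to total RNA by RIBOGREEN; IC50 from dose-response.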

AR mRNA [2] = test: Antisense inhibition of human AR in HuVEC cells, single concentration (electroporation, qRT-PCR RTS3559); format: cell-based
Procedure, shortened: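 HuVEC cells electroporated with antisense oligonucleotides at a single concentration. AR mRNA quantified by qRT-PCR using human primer-probe set RTS3559 and normalised to total RNA content by RIBOGREEN.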

[3] = Table 34, electroporation, approximately 16 hours
[4] = Table 31, electroporation, approximately 16 hours
[5] = 500 nM ASO, electroporation, ~24 h, Table 1
[6] = Table 32, electroporation, approximately 16 hours
[7] = Table 35, electroporation, approximately 16 hours
[8] = Table 30, electroporation, approximately 16 hours

## 583998 (k[5mC]*kA*kT*dG*d[5mC]*d[5mC]*dG*d[5mC]*d[5mC]*dA*dG*dG*dG*kT*kA*k[5mC]; antisense) [compound 583998]
AR mRNA [1]; [3]
  percent inhibition of AR, 46.9 nM: 4%
  percent inhibition of AR, 187.5 nM: 25%
  percent inhibition of AR, 750.0 nM: 38%
  percent inhibition of AR, 3000.0 nM: 70%
  IC50: 890 nM
AR mRNA [2]; Table 22, 500 nM oligonucleotide, electroporation, approximately 24 hours, relative to untreated control
  % inhibition: 45%

## 583693 (antisense k[5mC]*kT*kG*dT*dG*dA*dT*dG*dA*dT*dG*d[5mC]*dG*kG*kT*kA) [compound 583693]
AR mRNA [1]; [4]
  percent inhibition of AR, 46.9 nM: 12%
  percent inhibition of AR, 187.5 nM: 39%
  percent inhibition of AR, 750.0 nM: 64%
  percent inhibition of AR, 3000.0 nM: 80%
  IC50: 380 nM
AR mRNA [2]; 500 nM ASO, ~24 h, Table 18
  % inhibition: 36%

## 549374 (kG*k[5mC]*kG*d[5mC]*dT*dG*d[5mC]*d[5mC]*dG*dT*dA*dG*dT*k[5mC]*k[5mC]*kA; antisense) [compound 549374]
AR mRNA [1]; 55.6 nM, ~16 h, Table 3
  percent inhibition of AR: 40%
AR mRNA [1]; 166.7 nM, ~16 h, Table 3
  percent inhibition of AR: 59%
AR mRNA [1]; 500.0 nM, ~16 h, Table 3
  percent inhibition of AR: 83%
AR mRNA [1]; 1500.0 nM, ~16 h, Table 3
  percent inhibition of AR: 92%
AR mRNA [1]; ~16 h, Table 3
  IC50: 108 nM
AR mRNA [2]; [5]
  % inhibition: 93%

## 549362 (k[5mC]*k[5mC]*k[5mC]*dG*dA*dA*dG*d[5mC]*dT*dG*dT*dT*d[5mC]*k[5mC]*k[5mC]*k[5mC]; antisense) [compound 549362]
AR mRNA [1]; 55.6 nM, ~16 h, Table 3
  percent inhibition of AR: 10%
AR mRNA [1]; 166.7 nM, ~16 h, Table 3
  percent inhibition of AR: 23%
AR mRNA [1]; 500.0 nM, ~16 h, Table 3
  percent inhibition of AR: 57%
AR mRNA [1]; 1500.0 nM, ~16 h, Table 3
  percent inhibition of AR: 74%
AR mRNA [1]; ~16 h, Table 3
  IC50: 447 nM
AR mRNA [2]; [5]
  % inhibition: 85%

## 569229 (antisense eG*eT*kT*kG*kA*dT*dT*dT*dA*dA*dT*dG*kG*kT*kT*eG) [compound 569229]
AR mRNA [1]; 31.25 nM, ~16 h, Table 14
  percent inhibition of AR: 16%
AR mRNA [1]; 62.5 nM, ~16 h, Table 14
  percent inhibition of AR: 14%
AR mRNA [1]; 125.0 nM, ~16 h, Table 14
  percent inhibition of AR: 36%
AR mRNA [1]; 500.0 nM, ~16 h, Table 14
  percent inhibition of AR: 74%
AR mRNA [1]; 1000.0 nM, ~16 h, Table 14
  percent inhibition of AR: 84%
AR mRNA [1]; ~16 h, Table 14
  IC50: 220 nM
AR mRNA [2]; 1,000 nM ASO, ~24 h, Table 13
  % inhibition: 57%

## 583759 (antisense kG*k[5mC]*kT*dG*dT*dT*d[5mC]*d[5mC]*dT*d[5mC]*dA*dT*d[5mC]*k[5mC]*kA*kG) [compound 583759]
AR mRNA [1]; [6]
  percent inhibition of AR, 46.9 nM: 5%
  percent inhibition of AR, 187.5 nM: 28%
  percent inhibition of AR, 750.0 nM: 61%
  percent inhibition of AR, 3000.0 nM: 67%
  IC50: 630 nM
AR mRNA [2]; Table 19, 500 nM oligonucleotide, electroporation, approximately 24 hours, relative to untreated control
  % inhibition: 38%

## 584179 (kA*kT*kG*dA*dG*dT*d[5mC]*d[5mC]*dT*d[5mC]*dA*dG*dA*kA*kT*k[5mC]; antisense) [compound 584179]
AR mRNA [1]; [7]
  percent inhibition of AR, 46.9 nM: 1%
  percent inhibition of AR, 187.5 nM: 25%
  percent inhibition of AR, 750.0 nM: 62%
  percent inhibition of AR, 3000.0 nM: 87%
  IC50: 440 nM
AR mRNA [2]; Table 24, 1,000 nM oligonucleotide, electroporation, approximately 24 hours, relative to untreated control
  % inhibition: 74%

## 583871 (kA*kT*kA*d[5mC]*dT*d[5mC]*dA*dG*d[5mC]*dA*dG*dT*dA*kT*k[5mC]*kT; antisense) [compound 583871]
AR mRNA [1]; [6]
  percent inhibition of AR, 46.9 nM: 28%
  percent inhibition of AR, 187.5 nM: 30%
  percent inhibition of AR, 750.0 nM: 68%
  percent inhibition of AR, 3000.0 nM: 87%
  IC50: 280 nM
AR mRNA [2]; Table 20, 500 nM oligonucleotide, electroporation, approximately 24 hours, relative to untreated control
  % inhibition: 47%

## 583689 (antisense kA*kT*kG*d[5mC]*dG*dG*dT*dA*dG*dT*d[5mC]*dG*d[5mC]*kT*kG*k[5mC]) [compound 583689]
AR mRNA [1]; [8]
  percent inhibition of AR, 46.9 nM: 20%
  percent inhibition of AR, 187.5 nM: 34%
  percent inhibition of AR, 750.0 nM: 62%
  percent inhibition of AR, 3000.0 nM: 74%
  IC50: 440 nM
AR mRNA [2]; 500 nM ASO, ~24 h, Table 18
  % inhibition: 39%

## 549332 (kG*k[5mC]*kG*d[5mC]*dT*d[5mC]*dT*dG*dA*d[5mC]*dA*dG*d[5mC]*k[5mC]*kT*k[5mC]; antisense) [compound 549332]
AR mRNA [1]; 55.6 nM, ~16 h, Table 4
  percent inhibition of AR: 35%
AR mRNA [1]; 166.7 nM, ~16 h, Table 4
  percent inhibition of AR: 57%
AR mRNA [1]; 500.0 nM, ~16 h, Table 4
  percent inhibition of AR: 79%
AR mRNA [1]; 1500.0 nM, ~16 h, Table 4
  percent inhibition of AR: 79%
AR mRNA [1]; ~16 h, Table 4
  IC50: 104 nM
AR mRNA [2]; [5]
  % inhibition: 84%
